Test results as given in US7105470B1, “Herbicidal compositions for tolerant or resistant soybean crops” (Hoechst Schering AgrEvo GmbH, priority 1998, dated 2006).
Counter-ions that a name gives are not always drawn.

Tests used:
Format in all cases: in vivo
Sida rombifolia = test: Field trial with soybeans, herbicidal action; details: 4-leaf stage, scoring 43 days after application
Equisetum arvense = test: Field trial with soybeans, herbicidal action; details: 4–6 leaf stage, scoring 3 weeks after application
Protocol: (§1) Transgenic soybean plants with a resistance to one or more herbicides (A) together with typical weed plants were grown in the open on 2×5 m plots under natural field conditions; alternatively, weed infestation occurred naturally when the soybean plants were grown.
(§2) […] The damage to, and the development of, all aerial parts of the plants was recorded. Scoring was done on the basis of a percentage sale (100% action all plants destroyed; 50% action=50% of the plants and green parts of the plants destroyed; 0% action=no recognizable effect=like control plot. The mean of the score values of in each case 4 plots was calculated.

Digitalis abscendens = test: Field trial with soybeans, herbicidal action; details: application middle-end of stocking, scoring 3 weeks after application
Protocol: as §1, §2

Portulaca oleracea = test: Field trial with soybeans, herbicidal action; details: 8–10 leaf stage, scoring 32 days after application
Protocol: as §1, §2

Pharbitis purpureum = test: Field trial with soybeans, herbicidal action; details: 3-leaf stage, scoring 42 days after application
Protocol: as §1
(§3) 2, 4, 6 and 8 weeks after the application, the herbicidal activity of the active substances or active substance mixtures was scored visually with reference to the treated plots in comparison to untreated control plots. The damage to, and the development of, all aerial parts of the plants was recorded. Scoring was done on the basis of a percentage sale (100% action all plants destroyed; 50% action=50% of the plants and green parts of the plants destroyed; 0% action=no recognizable effect=like control plot. The mean of the score values of in each case 4 plots was calculated.

Sorghum sudaneus = test: Field trial with soybeans, herbicidal action; details: 4-leaf stage, scoring 28 days after application
Protocol: as §1, §3

Abutilon theophrasti = test: Field trial with soybeans, herbicidal action; details: 4-leaf stage, scoring 42 days after application
Protocol: as §1, §3

Xanthium orientalis = test: Field trial with soybeans, herbicidal action; details: 5-leaf stage, scoring 28 days after application
Protocol: as §1, §3

Eleusine indica = test: Field trial with soybeans, herbicidal action; details: 3-leaf stage, scoring 42 days after application
Protocol: as §1, §3

[1] = tested on: Soja LL (glufosinate-tolerant soybean culture); test: Field trial with soybeans, tolerance by crop plants
Protocol: as §1, §3

[2] = Table 8, 50 g of a.s./ha, 4-leaf stage, scoring 43 days after application

CP(=O)(O)CCC(N)C(=O)O (centres unmarked) [(A1.2), glufosinate-monoammonium salt]
Herbicidal action (%) against Sida rombifolia (Sida rombifolia; 150 g of a.s./ha): 25% | Herbicidal action (%) against Sida rombifolia (Sida rombifolia; 300 g of a.s./ha): 65% | Herbicidal action (%) against Equisetum arvense (Equisetum arvense; 400 g of a.s./ha): 70% | Herbicidal action (%) against Digitalis abscendens (Digitalis abscendens; 1200 g of a.s./ha): 36% | Herbicidal action (%) against Portulaca oleracea (Portulaca oleracea; 250 g of a.s./ha): 20% | Herbicidal action (%) against Portulaca oleracea (Portulaca oleracea; 500 g of a.s./ha): 65% | Herbicidal action (%) against Pharbitis purpureum (Pharbitis purpureum; 200 g of a.s./ha): 35% | Herbicidal action (%) against Pharbitis purpureum (Pharbitis purpureum; 400 g of a.s./ha): 72% | Herbicidal action (%) against Sorghum sudaneus (Sorghum sudaneus; 300 g of a.s./ha): 15% | Herbicidal action (%) against Sorghum sudaneus (Sorghum sudaneus; 500 g of a.s./ha): 65% | Herbicidal action (%) against Abutilon theophrasti (Abutilon theophrasti; 330 g of a.s./ha): 45% | Herbicidal action (%) against Abutilon theophrasti (Abutilon theophrasti; 500 g of a.s./ha): 95% | Herbicidal action (%) against Xanthium orientalis (Xanthium orientalis; 300 g of a.s./ha): 96% | Herbicidal action (%) against Xanthium orientalis (Xanthium orientalis; 500 g of a.s./ha): 98% | Herbicidal action (%) against Eleusine indica (Eleusine indica; 200 g of a.s./ha): 40% | Herbicidal action (%) against Eleusine indica (Eleusine indica; 500 g of a.s./ha): 80% | Herbicidal action (%) against Soja LL ([1]; Table 5, 250 g of a.s./ha, 8–10 leaf stage, scoring 32 days after application): 0% | Herbicidal action (%) against Soja LL ([1]; Table 5, 500 g of a.s./ha, 8–10 leaf stage, scoring 32 days after application): 0% | Herbicidal action (%) against Soja LL ([1]; Table 6, 200 g of a.s./ha, 3-leaf stage, scoring 42 days after application): 0% | Herbicidal action (%) against Soja LL ([1]; Table 6, 500 g of a.s./ha, 3-leaf stage, scoring 42 days after application): 0% | Herbicidal action (%) against Soja LL ([1]; Table 7, 200 g of a.s./ha, 3-leaf stage, scoring 42 days after application): 0% | Herbicidal action (%) against Soja LL ([1]; Table 7, 400 g of a.s./ha, 3-leaf stage, scoring 42 days after application): 0% | Herbicidal action (%) against Soja LL ([1]; Table 8, 150 g of a.s./ha, 4-leaf stage, scoring 43 days after application): 0% | Herbicidal action (%) against Soja LL ([1]; Table 8, 300 g of a.s./ha, 4-leaf stage, scoring 43 days after application): 0%

CCc1cnc(C2=NC(C)(C(C)C)C(=O)N2)c(C(=O)O)c1 (centres unmarked) [(A3.2), imazethapyr]
Herbicidal action (%) against Eleusine indica (Eleusine indica; 50 g of a.s./ha): 27% | Herbicidal action (%) against Soja LL ([1]; in vivo): 0%

COCc1cnc(C2=NC(C)(C(C)C)C(=O)N2)c(C(=O)O)c1 (centres unmarked) [(A3.5), imazamox]
Herbicidal action (%) against Pharbitis purpureum (Pharbitis purpureum; 30 g of a.s./ha): 40% | Herbicidal action (%) against Soja LL ([1]; Table 7, 30 g of a.s./ha, 3-leaf stage, scoring 42 days after application): 0%

CCCN(CCC)c1c([N+](=O)[O-])cc(C(F)(F)F)cc1[N+](=O)[O-] [(B1.1), trifluralin]
Herbicidal action (%) against Xanthium orientalis (Xanthium orientalis; 960 g of a.s./ha): 0%

CCc1cccc(C)c1N(C(=O)CCl)C(C)COC (centres unmarked) [(B1.5), metolachlor]
Herbicidal action (%) against Portulaca oleracea (Portulaca oleracea; 2240 g of a.s./ha): 30% | Herbicidal action (%) against Soja LL ([1]; Table 5, 2240 g of a.s./ha, 8–10 leaf stage, scoring 32 days after application): 0%

Cc1ccn2nc(S(=O)(=O)Nc3c(F)cccc3F)nc2n1 [(B1.6), flumetsulam]
Herbicidal action (%) against Abutilon theophrasti (Abutilon theophrasti; 35 g of a.s./ha): 52%

COCC(C)N(C(=O)CCl)c1c(C)csc1C (centres unmarked) [(B1.7), dimethenamid]
Herbicidal action (%) against Abutilon theophrasti (Abutilon theophrasti; 1500 g of a.s./ha): 30%

CCc1cccc(CC)c1N(COC)C(=O)CCl [(B1.8), alachlor]
Herbicidal action (%) against Digitalis abscendens (Digitalis abscendens; 2580 g of a.s./ha): 48%

CON(C)C(=O)Nc1ccc(Cl)c(Cl)c1 [(B1.9), linuron]
Herbicidal action (%) against Sorghum sudaneus (Sorghum sudaneus; 750 g of a.s./ha): 15%

C#CCN1C(=O)COc2cc(F)c(N3C(=O)C4=C(CCCC4)C3=O)cc21 [(B1.15), flumioxazin]
Herbicidal action (%) against Portulaca oleracea (Portulaca oleracea; 100 g of a.s./ha): 65% | Herbicidal action (%) against Pharbitis purpureum (Pharbitis purpureum; 12.5 g of a.s./ha): 30% | Herbicidal action (%) against Soja LL ([1]; Table 5, 100 g of a.s./ha, 8–10 leaf stage, scoring 32 days after application): 0% | Herbicidal action (%) against Soja LL ([1]; Table 7, 12.5 g of a.s./ha, 3-leaf stage, scoring 42 days after application): 0%

CC(C)N1C(=O)c2ccccc2NS1(=O)=O [(B2.2), bentazone]
Herbicidal action (%) against Pharbitis purpureum (Pharbitis purpureum; 480 g of a.s./ha): 35% | Herbicidal action (%) against Soja LL ([1]; Table 7, 480 g of a.s./ha, 3-leaf stage, scoring 42 days after application): 0%

COC(=O)c1sccc1S(=O)(=O)NC(=O)Nc1nc(C)nc(OC)n1 [(B2.3), thifensulfuron-methyl]
Herbicidal action (%) against Portulaca oleracea (Portulaca oleracea; 5 g of a.s./ha): 45% | Herbicidal action (%) against Sorghum sudaneus (Sorghum sudaneus; 15 g of a.s./ha): 13% | Herbicidal action (%) against Soja LL ([1]; in vivo): 3%

CCOC(=O)C(C)OC(=O)c1cc(Oc2ccc(C(F)(F)F)cc2Cl)ccc1[N+](=O)[O-] (centres unmarked) [(B2.5), lactofen]
Herbicidal action (%) against Equisetum arvense (Equisetum arvense; 150 g of a.s./ha): 0% | Herbicidal action (%) against Equisetum arvense (Equisetum arvense; 300 g of a.s./ha): 0% | Herbicidal action (%) against Abutilon theophrasti (Abutilon theophrasti; 2240 g of a.s./ha): 20%

CCCCCOC(=O)COc1cc(N2C(=O)C3=C(CCCC3)C2=O)c(F)cc1Cl [(B2.7), flumiclorac-pentyl]
Herbicidal action (%) against Sida rombifolia (Sida rombifolia; 50 g of a.s./ha): 40% | Herbicidal action (%) against Soja LL [1, 2]: 0%

O=C(O)c1cc(Oc2ccc(C(F)(F)F)cc2Cl)ccc1[N+](=O)[O-] [(B2.8), acifluorfen]
Herbicidal action (%) against Sorghum sudaneus (Sorghum sudaneus; 360 g of a.s./ha): 15%

COc1cc(Cl)nc(NC(=O)NS(=O)(=O)c2ccccc2C(=O)O)n1 [(B2.11), chlorimuron]
Herbicidal action (%) against Eleusine indica (Eleusine indica; 12.5 g of a.s./ha): 5% | Herbicidal action (%) against Soja LL ([1]; Table 6, 12.5 g of a.s./ha, 3-leaf stage, scoring 42 days after application): 0%

CCOc1nc(F)cc2nc(S(=O)(=O)Nc3c(Cl)cccc3C(=O)OC)nn12 [(B2.12), cloransulam-methyl]
Herbicidal action (%) against Portulaca oleracea (Portulaca oleracea; 18 g of a.s./ha): 73% | Herbicidal action (%) against Pharbitis purpureum (Pharbitis purpureum; 40 g of a.s./ha): 45% | Herbicidal action (%) against Soja LL ([1]; Table 5, 18 g of a.s./ha, 8–10 leaf stage, scoring 32 days after application): 2% | Herbicidal action (%) against Soja LL ([1]; Table 7, 40 g of a.s./ha, 3-leaf stage, scoring 42 days after application): 0%

Cc1cc(C)nc(NC(=O)NS(=O)(=O)c2ccccc2C(=O)OC2COC2)n1 [(B2.15), oxasulfuron]
Herbicidal action (%) against Sida rombifolia (Sida rombifolia; 50 g of a.s./ha): 60% | Herbicidal action (%) against Soja LL [1, 2]: 0%

CCOC(=O)[C@@H](C)Oc1ccc(Oc2nc3ccc(Cl)cc3o2)cc1 [(B4.2), fenoxaprop-P-ethyl]
Herbicidal action (%) against Eleusine indica (Eleusine indica; 25 g of a.s./ha): 30% | Herbicidal action (%) against Eleusine indica (Eleusine indica; 50 g of a.s./ha): 70% | Herbicidal action (%) against Soja LL ([1]; Table 6, 25 g of a.s./ha, 3-leaf stage, scoring 42 days after application): 0% | Herbicidal action (%) against Soja LL ([1]; Table 6, 50 g of a.s./ha, 3-leaf stage, scoring 42 days after application): 0%
